According to patent US20240368181A1, “QUINOXALINE DERIVATIVES AND USES THEREOF” (Black Diamond Therapeutics, Inc., priority 2021, published 2024):

Experiments:
Type in all cases: cell-based
[1] = tested on: SNU-16 (FGFR2-amplification) cells; assay: cell proliferation assay (CellTiterGlo), SNU-16 cells; conditions: Homo sapiens, 72 hours
Outline: (§1)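 Suspended cells plated; DMSO or compound dose range added; intracellular ATP read by CellTiterGlo luminescence; IC50 vs vehicle-normalized viability.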

[2] = tested on: UM-UC-14 (FGFR3-S249C) cells; assay: cell proliferation assay (CellTiterGlo), UM-UC-14 cells; conditions: UMUC14, 72 h
Outline: as §1

[3] = tested on: DMS-114 (FGFR1 overexpression) cells; assay: cell proliferation assay (CellTiterGlo), DMS-114 cells; conditions: Homo sapiens, DMS-114, 72 h
Outline: as §1

[4] = tested on: RT-112 (FGFR3-Tacc3 fusion) cells; assay: cell proliferation assay (CellTiterGlo), RT-112 cells; conditions: Homo sapiens, RT-112, RT112 cells, 72 hours
Outline: as §1

Compound	IC50 [1] [nM]	IC50 [2] [nM]	IC50 [3] [nM]	IC50 [4] [nM]
Cc1nc2ccc(Oc3ccc4ncc(-c5cnn(C6CC7(CNC7)C6)c5)nc4c3Cl)cc2[nH]1 [Compound 256]	100 to 400	100 to 400	≥ 400	100 to 400
Cc1nc2ccc(Oc3ccc4ncc(-c5cnn(CC6CC(C)(O)C6)c5)nc4c3Cl)cc2[nH]1 (stereo not drawn) [Compound 257]	< 20	20 to 100	100 to 400	< 20
Cc1nc2ccc(Oc3ccc4ncc(-c5cnn(C6CC(O)C6)c5)nc4c3Cl)cc2[nH]1 (stereo not drawn) [Compound 258]	20 to 100	20 to 100	≥ 400	20 to 100
Cc1nc2ccc(Oc3ccc4ncc(-c5cnn(CC6(O)CC6)c5)nc4c3Cl)cc2[nH]1 [Compound 259]	20 to 100	20 to 100	≥ 400	20 to 100
COC1CCN(CCn2cc(-c3cnc4ccc(Oc5ccc6nc(C)[nH]c6c5)c(Cl)c4n3)cn2)C1 (stereo not drawn) [Compound 260]	20 to 100	20 to 100	100 to 400	20 to 100
Cc1nc2ccc(Oc3ccc4ncc(-c5cnn([C@H]6CCN(CC(F)(F)F)C[C@@H]6F)c5)nc4c3Cl)cc2[nH]1 [Compound 262]	20 to 100	100 to 400	≥ 400	20 to 100
Cc1nc2ccc(Oc3ccc4ncc(-c5cnn(C6CCNCC6)c5C)nc4c3Cl)cc2[nH]1 [Compound 263]	100 to 400	100 to 400	≥ 400	100 to 400
Cc1nc2ccc(Oc3ccc4ncc(-c5cn(C6CCNCC6)nc5C)nc4c3Cl)cc2[nH]1 [Compound 264]	20 to 100	20 to 100	100 to 400	20 to 100
Cc1nc2ccc(Oc3ccc4ncc(-c5cnn(C6CC(N7CC(F)(F)C7)C6)c5)nc4c3Cl)cc2[nH]1 (stereo not drawn) [Compound 265]	20 to 100	20 to 100	100 to 400	20 to 100
Cc1nc2cc(Oc3ccc4ncc(-c5cnn(CC6CC(F)(F)C6)c5)nc4c3Cl)cc(F)c2[nH]1 [Compound 266]	100 to 400	100 to 400	≥ 400	100 to 400
Cc1nc2ccc(Oc3ccc4ncc(-c5cnn(CCN6CCC(O)C6)c5)nc4c3Cl)cc2[nH]1 (stereo not drawn) [Compound 267]	20 to 100	20 to 100	≥ 400	20 to 100
Cc1nc2ccc(Oc3ccc4ncc(-c5cnn(CCO)c5)nc4c3Cl)c(F)c2[nH]1 [Compound 268]	20 to 100	20 to 100	≥ 400	20 to 100
Cc1nc2ccc(Oc3ccc4ncc(-c5cnn(CC(=O)O)c5)nc4c3Cl)cc2[nH]1 [Compound 269]	≥ 400	≥ 400	≥ 400	≥ 400
Cc1nc2ccc(Oc3ccc4ncc(-c5cnn(CC(=O)N6CCS(=O)(=O)CC6)c5)nc4c3Cl)cc2[nH]1 [Compound 270]	100 to 400	≥ 400	≥ 400	20 to 100
Cc1nc2ccc(Oc3ccc4ncc(-c5cnn(CC6CN(C)CCO6)c5)nc4c3Cl)cc2[nH]1 (stereo not drawn) [Compound 271]	20 to 100	20 to 100	≥ 400	< 20
Cc1nc2ccc(Oc3ccc4ncc(-c5cnn(CC(C)(C)C#N)c5)nc4c3Cl)cc2[nH]1 [Compound 272]	20 to 100	20 to 100	≥ 400	20 to 100
Cc1nc2ccc(Oc3ccc4ncc(-c5cnn(CC6CNCCO6)c5)nc4c3Cl)cc2[nH]1 (stereo not drawn) [Compound 273]	20 to 100	20 to 100	≥ 400	20 to 100
Cc1nc2ccc(Oc3ccc4ncc(-c5cnn(CC(C)(C)C(N)=O)c5)nc4c3Cl)cc2[nH]1 [Compound 274]	20 to 100	20 to 100	≥ 400	20 to 100
Cc1nc2ccc(Oc3ccc4ncc(-c5cnn(CC6CC(F)(F)C6)c5C)nc4c3Cl)cc2[nH]1 [Compound 275]	≥ 400	100 to 400	≥ 400	≥ 400
Cc1nc2ccc(Oc3ccc4ncc(-c5cn(CC6CC(F)(F)C6)nc5C)nc4c3Cl)cc2[nH]1 [Compound 276]	100 to 400	100 to 400	≥ 400	20 to 100
COC1CCN(C(=O)Cn2cc(-c3cnc4ccc(Oc5ccc6nc(C)[nH]c6c5)c(Cl)c4n3)cn2)C1 (stereo not drawn) [Compound 277]	20 to 100	100 to 400	≥ 400	20 to 100
Cc1nc2ccc(Oc3ccc4ncc(-c5cnn(CCC6CCS(=O)(=O)C6)c5)nc4c3Br)cc2[nH]1 (stereo not drawn) [Compound 278]	< 20	< 20	≥ 400	< 20
Cc1nc2ccc(Oc3ccc4ncc(-c5cnn(CC6CCS(=O)(=O)CC6)c5)nc4c3Br)cc2[nH]1 [Compound 279]	< 20	< 20	≥ 400	< 20

Compound	IC50 [1] [nM]	IC50 [2] [nM]	IC50 [3] [nM]	IC50 [4] [nM]
Cc1nc2ccc(Oc3ccc4ncc(-c5cnn(CC(C)(C)O)c5)nc4c3Cl)cc2[nH]1 [Compound 280]	20 to 100	20 to 100	≥ 400	20 to 100
COC1CC(Cn2cc(-c3cnc4ccc(Oc5ccc6nc(C)[nH]c6c5)c(Cl)c4n3)cn2)C1 (stereo not drawn) [Compound 281]	20 to 100	20 to 100	≥ 400	20 to 100
Cc1nc2ccc(Oc3ccc4ncc(-c5cnn(C(C)(C)CC(N)=O)c5)nc4c3Cl)cc2[nH]1 [Compound 282]	20 to 100	100 to 400	≥ 400	20 to 100
Cc1nc2ccc(Oc3ccc4ncc(-c5cnn(CC(=O)N6CC[C@@H](F)C6)c5)nc4c3Cl)cc2[nH]1 [Compound 283]	20 to 100	20 to 100	≥ 400	20 to 100
Cc1nc2ccc(Oc3ccc4ncc(-c5cnn(CC(=O)N6CC[C@H](F)C6)c5)nc4c3Cl)cc2[nH]1 [Compound 284]	20 to 100	20 to 100	≥ 400	20 to 100
Cc1nc2ccc(Oc3ccc4ncc(-c5cnn(CC(=O)N6CCOCC6)c5)nc4c3Cl)cc2[nH]1 [Compound 285]	20 to 100	20 to 100	≥ 400	20 to 100
Cc1nc2ccc(Oc3ccc4ncc(-c5cnn(CC6CCC(F)(F)C6)c5)nc4c3Cl)cc2[nH]1 (stereo not drawn) [Compound 286]	100 to 400	20 to 100	≥ 400	20 to 100
Cc1nc2ccc(Oc3ccc4ncc(-c5cnn(CC(=O)N6CCC(F)(F)C6)c5)nc4c3Cl)cc2[nH]1 [Compound 287]	20 to 100	20 to 100	≥ 400	20 to 100
Cc1nc2ccc(Oc3ccc4ncc(-c5cnn([C@H]6CCNC[C@@H]6F)c5)nc4c3C)cc2[nH]1 [Compound 288]	20 to 100	20 to 100	≥ 400	20 to 100
Cc1nc2ccc(Oc3ccc4ncc(-c5cnn(C6CCNCC6)c5)nc4c3C3CC3)cc2[nH]1 [Compound 289]	20 to 100	20 to 100	100 to 400	20 to 100
Cc1nc2ccc(Oc3ccc4ncc(-c5cnn(CC(=O)N6CCC(F)C6)c5)nc4c3Cl)cc2[nH]1 (stereo not drawn) [Compound 290]	20 to 100	20 to 100	≥ 400	20 to 100
Cc1nc2ccc(Oc3ccc4ncc(-c5cnn(CC6CC(N7CCC7)C6)c5)nc4c3Cl)cc2[nH]1 (stereo not drawn) [Compound 291]	20 to 100	20 to 100	≥ 400	20 to 100
Cc1nc2ccc(Oc3ccc4ncc(-c5cnn(CC6CCNCC6)c5)nc4c3C)cc2[nH]1 [Compound 292]	100 to 400	20 to 100	≥ 400	100 to 400
Cc1nc2ccc(Oc3ccc4ncc(-c5cnn(C6CCNCC6)c5)nc4c3C)cc2[nH]1 [Compound 293]	20 to 100	20 to 100	100 to 400	20 to 100
Cc1nc2ccc(Oc3ccc4ncc(-c5cnn(CCC6CCN(C7COC7)CC6)c5)nc4c3Cl)cc2[nH]1 [Compound 294]	20 to 100	< 20	100 to 400	20 to 100
Cc1nc2ccc(Oc3ccc4ncc(-c5cnn(C67CCN(CC6)C7)c5)nc4c3Cl)cc2[nH]1 [Compound 295]	≥ 400	≥ 400	≥ 400	≥ 400
Cc1nc2ccc(Oc3ccc4ncc(-c5cnn(CCC6CCN(CC(F)(F)F)CC6)c5)nc4c3Cl)cc2[nH]1 [Compound 296]	20 to 100	20 to 100	≥ 400	20 to 100
Cc1nc2ccc(Oc3ccc4ncc(-c5cnn(CC6CC(N(C)C)C6)c5)nc4c3Cl)cc2[nH]1 (stereo not drawn) [Compound 297]	20 to 100	20 to 100	≥ 400	20 to 100
C=C1COC(Cn2cc(-c3cnc4ccc(Oc5ccc6nc(C)[nH]c6c5)c(Cl)c4n3)cn2)OC1 [Compound 298]	100 to 400	20 to 100	≥ 400	20 to 100
Cc1nc2ccc(Oc3ccc4ncc(-c5cnn(CC6OCC7(COC7)CO6)c5)nc4c3Cl)cc2[nH]1 [Compound 299]	20 to 100	20 to 100	≥ 400	20 to 100
CCC(=O)N1CCC(CCn2cc(-c3cnc4ccc(Oc5ccc6nc(C)[nH]c6c5)c(Cl)c4n3)cn2)CC1 [Compound 300]	20 to 100	< 20	≥ 400	20 to 100
Cc1nc2ccc(Oc3ccc4ncc(-c5cnn(C6CCN(CCO)CC6)c5)nc4c3Cl)cc2[nH]1 [Compound 301]	< 20	20 to 100	≥ 400	< 20
